Test results as given in patent publication US9545105B2, “1-(heterocyclic carbonyl) piperidines” (BAYER INTELLECTUAL PROPERTY GMBH, priority 2010, dated 2017).

tested on: not listed separately; assay: log P by HPLC on reversed-phase column (C 18), EEC Directive 79/831 Annex V.A8; type: physicochemical; conditions: HPLC on reversed-phase column (C 18); 40° C.; 0.1% aqueous formic acid and acetonitrile; linear gradient 10% to 90% acetonitrile
Method: In table 1, the log P values were determined in accordance with EEC Directive 79/831 Annex V.A8 by HPLC (High Performance Liquid Chromatography) on a reversed-phase column (C 18), using the method described below: Temperature: 40° C.; Mobile phases: 0.1% aqueous formic acid and acetonitrile; linear gradient from 10% acetonitrile to 90% acetonitrile. Calibration was carried out using unbranched alkan-2-ones (comprising 3 to 16 carbon atoms) with known log P values (determination of the log P values by the retention times using linear interpolation between two successive alkanones). lambda-max-values were determined using UV-spectra from 200 nm to 400 nm and the peak values of the chromatographic signals.

Compound	logP
CCc1noc(C)c1C(=O)N1CCCCC1c1ccccc1C (centres unmarked) [Example 2]	3.19
Cc1cc(C(=O)N2CCCCC2c2ccccc2C)c(C)o1 (centres unmarked) [Example 3]	3.73
Cc1cc(C)cc(C2CCCCN2C(=O)c2cn(C)nc2[N+](=O)[O-])c1 (centres unmarked) [Example 14]	3.09
Cc1cc(C)cc(C2CCCCN2C(=O)c2snnc2C(C)C)c1 (centres unmarked) [Example 16]	4.59
Cc1cc(C)cc(C2CCCCN2C(=O)c2nn(C)cc2Br)c1 (centres unmarked) [Example 18]	3.55
Cc1cc(C)cc(C2CCCCN2C(=O)c2nn(C)cc2Cl)c1 (centres unmarked) [Example 19]	3.44
CCn1nc(C)c(C(=O)N2CCCCC2c2cc(C)cc(C)c2)c1F (centres unmarked) [Example 20]	3.67
Cc1cc(C)cc(C2CCCCN2C(=O)c2sc(Cl)nc2C)c1 (centres unmarked) [Example 25]	4.49
Cc1cc(C)cc(C2CCCCN2C(=O)c2sc(Br)nc2C)c1 (centres unmarked) [Example 26]	4.51
Cc1cc(C)cc(C2CCCCN2C(=O)c2sc(C)nc2Cl)c1 (centres unmarked) [Example 28]	4.06
Cc1cc(C)cc(C2CCCCN2C(=O)c2scnc2C)c1 (centres unmarked) [Example 29]	3.25
Cc1cc(C)cc(C2CCCCN2C(=O)c2ccsc2I)c1 (centres unmarked) [Example 35]	4.21
Cc1cc(C(=O)N2CCCCC2c2ccccc2Cl)c(C)o1 (centres unmarked) [Example 39]	3.89
CCc1noc(C)c1C(=O)N1CCCCC1c1cccc(Cl)c1 (centres unmarked) [Example 45]	3.48
Cn1nc(C(F)F)c(C(=S)N2CCCCC2c2cccc(Cl)c2)c1Cl (centres unmarked) [Example 50]	4.31
Cc1cc(C(=O)N2CCCCC2c2ccc3c(c2)OCCO3)c(C)o1 (centres unmarked) [Example 62]	3.25
CCc1nn(C)c(F)c1C(=O)N1CCCCC1c1ccc2c(c1)OCCO2 (centres unmarked) [Example 63]	2.66
Cc1nn(C)c(F)c1C(=O)N1CCCCC1c1ccc2c(c1)OCCO2 (centres unmarked) [Example 64]	2.39
CCc1noc(C)c1C(=O)N1CCCCC1c1cc(OC)cc(OC)c1 (centres unmarked) [Example 69]	3.02

Compound	logP
CCc1noc(C)c1C(=O)N1CCCCC1c1cccc(Cl)c1Cl (centres unmarked) [Example 74]	3.73
Cc1nn(C)c(Cl)c1C(=O)N1CCCCC1c1ccc(Cl)cc1Cl (centres unmarked) [Example 75]	3.60
CCc1noc(C)c1C(=O)N1CCCCC1c1ccc(Cl)cc1Cl (centres unmarked) [Example 77]	3.89
Cc1cc(C(=O)N2CCCCC2c2cc(Cl)ccc2Cl)c(C)o1 (centres unmarked) [Example 84]	4.36
CCc1noc(C)c1C(=O)N1CCCCC1c1ccccc1Br (centres unmarked) [Example 89]	3.35
CCc1noc(C)c1C(=O)N1CCCCC1c1ccc(Br)cc1 (centres unmarked) [Example 101]	3.64
CCc1nn(C)c(F)c1C(=O)N1CCCCC1c1ccc(Br)cc1 (centres unmarked) [Example 102]	3.51
COc1cc(C2CCCCN2C(=O)c2c(C)nn(C)c2F)cc(OC)c1OC (centres unmarked) [Example 106]	2.21
CCc1nn(C)c(F)c1C(=O)N1CCCCC1c1cc(OC)c(OC)c(OC)c1 (centres unmarked) [Example 109]	2.49
CCc1noc(C)c1C(=O)N1CCCCC1Cc1ccccc1 (centres unmarked) [Example 130]	3.11
Cc1nc(C(F)F)c(C(=O)N2CCCCC2Cc2ccccc2)s1 (centres unmarked) [Example 133]	3.17
COc1ccccc1CC1CCCCN1C(=O)c1cc(C)oc1C (centres unmarked) [Example 158]	3.63
Cc1nc(C(F)F)c(C(=O)N2CCCCC2Cc2cccc(C(F)(F)F)c2)s1 (centres unmarked) [Example 167]	3.70
Cc1cc(C(=O)N2CCCCC2Cc2cccc(C(F)(F)F)c2)c(C)o1 (centres unmarked) [Example 168]	4.06
Cc1nc(C(F)F)c(C(=O)N2CCCCC2Cc2cccc3ccccc23)s1 (centres unmarked) [Example 170]	3.76
Cn1nc(C(F)F)c(C(=O)N2CCCCC2Cc2cccc3ccccc23)c1F (centres unmarked) [Example 171]	3.65
CCc1noc(C)c1C(=O)N1CCCCC1CCc1ccccc1 (centres unmarked) [Example 174]	3.44
Cc1nc(C(F)F)c(C(=O)N2CCCCC2CCc2ccccc2)s1 (centres unmarked) [Example 178]	3.52

Now from value to compound:

logP	Compound
4.34	Cc1cc(C)cc(C2CCCCN2C(=O)c2cc(C)oc2C)c1 (centres unmarked) [Example 12]
3.55	Cc1cc(C)cc(C2CCCCN2C(=O)c2nn(C)cc2I)c1 (centres unmarked) [Example 13]
3.60	Cc1cc(C)cc(C2CCCCN2C(=O)c2nnsc2C)c1 (centres unmarked) [Example 15]
3.71	Cc1cc(C)cc(C2CCCCN2C(=O)c2snnc2C)c1 (centres unmarked) [Example 17]
3.73	Cc1cc(C)cc(C2CCCCN2C(=O)c2scnc2Cl)c1 (centres unmarked) [Example 21]
4.59	Cc1cc(C)cc(C2CCCCN2C(=O)c2c(C(F)(F)F)cn(C)c2Cl)c1 (centres unmarked) [Example 22]
4.86	Cc1cc(C)cc(C2CCCCN2C(=O)c2sc(Cl)nc2Cl)c1 (centres unmarked) [Example 23]
3.85	Cc1cc(C)cc(C2CCCCN2C(=O)c2cn(C)nc2C(Cl)Cl)c1 (centres unmarked) [Example 24]
3.44	Cc1cc(C)cc(C2CCCCN2C(=O)c2sc(C)nc2C)c1 (centres unmarked) [Example 27]
4.34	CCn1ncc(Cl)c1C(=O)N1CCCCC1c1cc(C)cc(C)c1 (centres unmarked) [Example 32]
4.93	Cc1cc(C)cc(C2CCCCN2C(=O)c2c(C)oc(C)c2Br)c1 (centres unmarked) [Example 33]
3.29	CCc1noc(C)c1C(=O)N1CCCCC1c1ccccc1Cl (centres unmarked) [Example 38]
4.04	Cc1cc(C(=O)N2CCCCC2c2cccc(Cl)c2)c(C)o1 (centres unmarked) [Example 46]
3.51	CCc1noc(C)c1C(=O)N1CCCCC1c1ccc(Cl)cc1 (centres unmarked) [Example 52]
2.82	CCc1noc(C)c1C(=O)N1CCCCC1c1ccc2c(c1)OCCO2 (centres unmarked) [Example 61]
2.99	Cn1nc(C(F)F)c(C(=O)N2CCCCC2c2ccc3c(c2)OCCO3)c1Cl (centres unmarked) [Example 66]
3.48	COc1cc(OC)cc(C2CCCCN2C(=O)c2cc(C)oc2C)c1 (centres unmarked) [Example 70]

logP	Compound
4.54	Cc1cc(C(=O)N2CCCCC2c2ccc(Cl)cc2Cl)c(C)o1 (centres unmarked) [Example 79]
3.78	CCc1noc(C)c1C(=O)N1CCCCC1c1cc(Cl)ccc1Cl (centres unmarked) [Example 85]
4.16	Cc1cc(C(=O)N2CCCCC2c2ccc(Br)cc2)c(C)o1 (centres unmarked) [Example 100]
2.64	CCc1noc(C)c1C(=O)N1CCCCC1c1cc(OC)c(OC)c(OC)c1 (centres unmarked) [Example 107]
3.04	COc1cc(C2CCCCN2C(=O)c2cc(C)oc2C)cc(OC)c1OC (centres unmarked) [Example 108]
4.65	Cc1cc(C(=O)N2CCCCC2c2cccc(Oc3ccccc3)c2)c(C)o1 (centres unmarked) [Example 111]
3.76	CCc1noc(C)c1C(=O)N1CCCCC1c1ccc2ccccc2c1 (centres unmarked) [Example 119]
4.29	Cc1cc(C(=O)N2CCCCC2c2ccc(Br)s2)c(C)o1 (centres unmarked) [Example 127]
3.55	CCn1nc(C)c(C(=O)N2CCCCC2c2ccc(Br)s2)c1F (centres unmarked) [Example 128]
2.92	CCc1nn(C)c(F)c1C(=O)N1CCCCC1Cc1ccccc1 (centres unmarked) [Example 131]
3.59	Cc1cc(C(=O)N2CCCCC2Cc2cccc(F)c2)c(C)o1 (centres unmarked) [Example 152]
3.33	COc1ccccc1CC1CCCCN1C(=O)c1sc(C)nc1C(F)F (centres unmarked) [Example 159]
4.44	CCC(c1ccccc1Cl)C1CCCCN1C(=O)c1c(C(F)F)nn(C)c1Cl (centres unmarked) [Example 161]
3.92	Cc1cc(C(=O)N2CCCCC2CCc2ccccc2)c(C)o1 (centres unmarked) [Example 175]
3.35	Cc1nc(C(F)F)c(C(=O)N2CCCCC2CCc2cccs2)s1 (centres unmarked) [Example 192]
3.79	Cc1cc(C(=O)N2CCCCC2CCc2cccs2)c(C)o1 (centres unmarked) [Example 193]

same assay, conditions: reversed-phase HPLC column (C 18); HPLC, 40° C., 0.1% aqueous formic acid and acetonitrile

Compound	chromatographic logP
Cc1ccc(C2CCCC(C)N2C(=O)c2c(C(F)F)nn(C)c2F)cc1 (centres unmarked) [Example 197]	3.55
Cc1ccc(C2CCCC(C)N2C(=O)c2c(C(F)F)nn(C)c2Cl)cc1 (centres unmarked) [Example 198]	3.73
Cc1ccc(C2CCCC(C)N2C(=O)c2cn(C)nc2C(F)F)cc1 (centres unmarked) [Example 199]	3.17

tested on: Pyrenophora teres; assay: In vivo preventive test on Pyrenophora teres (barley); conditions: 500 ppm of active ingredient, evaluated 7-9 days after inoculation
Method: Solvent: 49 parts by weight of N,N-dimethylformamide Emulsifier: 1 part by weight of alkylaryl polyglycol ether To produce a suitable preparation of active compound, 1 part by weight of active compound is mixed with the stated amounts of solvent and emulsifier, and the concentrate is diluted with water to the desired concentration. To test for preventive activity, young plants are sprayed with the preparation of active compound at the stated rate of application. One day after this treatment, the plants are inoculated with an aqueous spore suspension of Pyrenophora teres. The plants remain for 48 hours in an incubation cabinet at 22° C. and a relative atmospheric humidity of 100%. Then the plants are placed in a greenhouse at a temperature of approximately 20° C. and a relative atmospheric humidity of approximately 80%. The test is evaluated 7-9 days after the inoculation. 0% means an efficacy which corresponds to that of the untreated control while an efficacy of 100% means that no disease is observed.

Compound	Efficacy [%]
Cc1cc(C(=O)N2CCCCC2c2ccccc2C)c(C)o1 (centres unmarked) [Example 3]	80
Cc1cc(C)cc(C2CCCCN2C(=O)c2cc(C)oc2C)c1 (centres unmarked) [Example 12]	90
Cc1cc(C(=O)N2CCCCC2c2cccc(Cl)c2)c(C)o1 (centres unmarked) [Example 46]	90
Cn1nc(C(F)F)c(C(=S)N2CCCCC2c2cccc(Cl)c2)c1Cl (centres unmarked) [Example 50]	100
Cc1nn(C)c(F)c1C(=O)N1CCCCC1c1ccc2c(c1)OCCO2 (centres unmarked) [Example 64]	95
COc1cc(OC)cc(C2CCCCN2C(=O)c2cc(C)oc2C)c1 (centres unmarked) [Example 70]	80
Cc1cc(C(=O)N2CCCCC2c2ccc(Cl)cc2Cl)c(C)o1 (centres unmarked) [Example 79]	80
Cc1cc(C(=O)N2CCCCC2c2cc(Cl)ccc2Cl)c(C)o1 (centres unmarked) [Example 84]	90
Cc1cc(C(=O)N2CCCCC2c2ccc(Br)cc2)c(C)o1 (centres unmarked) [Example 100]	70
CCc1nn(C)c(F)c1C(=O)N1CCCCC1c1ccc(Br)cc1 (centres unmarked) [Example 102]	100
CCc1nn(C)c(F)c1C(=O)N1CCCCC1Cc1ccccc1 (centres unmarked) [Example 131]	100
COc1ccccc1CC1CCCCN1C(=O)c1sc(C)nc1C(F)F (centres unmarked) [Example 159]	90
CCC(c1ccccc1Cl)C1CCCCN1C(=O)c1c(C(F)F)nn(C)c1Cl (centres unmarked) [Example 161]	94
